Measured values from PubChem BioAssay (NCI).
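Dose response: 5 concentrations. Exposure: 48 h. Format: 96-well plates. Endpoint: linear interpolation; highest concentration if not reached. GI50 marks 50% less growth. Definition used: TGI = concentration required for complete inhibition of growth.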

How the values were obtained:
Experiment in all cases: NCI anticancer screen, dose series, 48 h
786-0 renal = test system: 786-0 renal
A498 renal = test system: A498 renal
A549 NSCLC = test system: A549 NSCLC
ACHN renal = test system: ACHN renal
BT-549 breast = test system: BT-549 breast
CAKI-1 renal = test system: CAKI-1 renal
CCRF-CEM leukemia = test system: CCRF-CEM leukemia
COLO 205 colon = test system: COLO 205 colon
DU-145 prostate = test system: DU-145 prostate
EKVX NSCLC = test system: EKVX NSCLC
HCC-2998 colon = test system: HCC-2998 colon
HCT-116 colon = test system: HCT-116 colon
HCT-15 colon = test system: HCT-15 colon
HL-60(TB) leukemia = test system: HL-60(TB) leukemia
HOP-62 NSCLC = test system: HOP-62 NSCLC
HOP-92 NSCLC = test system: HOP-92 NSCLC
HS 578T breast = test system: HS 578T breast
HT29 colon = test system: HT29 colon
IGROV1 ovarian = test system: IGROV1 ovarian
K-562 leukemia = test system: K-562 leukemia
KM12 colon = test system: KM12 colon
LOX IMVI melanoma = test system: LOX IMVI melanoma
M14 melanoma = test system: M14 melanoma
MALME-3M melanoma = test system: MALME-3M melanoma
MCF7 breast = test system: MCF7 breast
MDA-MB-231 breast = test system: MDA-MB-231 breast
MDA-MB-435 = test system: MDA-MB-435
MDA-MB-468 breast = test system: MDA-MB-468 breast
MOLT-4 leukemia = test system: MOLT-4 leukemia
NCI-H226 lung = test system: NCI-H226 lung
NCI-H23 lung = test system: NCI-H23 lung
NCI-H460 lung = test system: NCI-H460 lung
NCI-H522 lung = test system: NCI-H522 lung
NCI/ADR-RES ovarian = test system: NCI/ADR-RES ovarian
OVCAR-3 ovarian = test system: OVCAR-3 ovarian
OVCAR-4 ovarian = test system: OVCAR-4 ovarian
OVCAR-5 ovarian = test system: OVCAR-5 ovarian
OVCAR-8 ovarian = test system: OVCAR-8 ovarian
PC-3 prostate = test system: PC-3 prostate
RPMI-8226 leukemia = test system: RPMI-8226 leukemia
RXF 393 renal = test system: RXF 393 renal
SF-268 CNS = test system: SF-268 CNS
SF-295 CNS = test system: SF-295 CNS
SF-539 CNS = test system: SF-539 CNS
SK-MEL-2 melanoma = test system: SK-MEL-2 melanoma
SK-MEL-28 melanoma = test system: SK-MEL-28 melanoma
SK-MEL-5 melanoma = test system: SK-MEL-5 melanoma
SK-OV-3 ovarian = test system: SK-OV-3 ovarian
SN12C renal = test system: SN12C renal
SNB-19 CNS = test system: SNB-19 CNS
SNB-75 CNS = test system: SNB-75 CNS
SW-620 colon = test system: SW-620 colon
T-47D breast = test system: T-47D breast
TK-10 renal = test system: TK-10 renal
U251 CNS = test system: U251 CNS
UACC-257 melanoma = test system: UACC-257 melanoma
UACC-62 melanoma = test system: UACC-62 melanoma
UO-31 renal = test system: UO-31 renal

## Cc1ccc2nc(-c3ccc(-c4nnc(SCC(=O)Nc5ccc(Cl)cc5)o4)cc3)[nH]c2c1
786-0 renal
  GI50: 3.05 µM
  TGI: 10.7 µM
A498 renal
  GI50: 16.3 µM
  TGI: 31.4 µM
A549 NSCLC
  GI50: 3.09 µM
  TGI: 12.5 µM
ACHN renal
  GI50: 4 µM
  TGI: 15.3 µM
BT-549 breast
  GI50: 16.4 µM
  TGI: 32.4 µM
CAKI-1 renal
  GI50: 3.59 µM
  TGI: 15.9 µM
CCRF-CEM leukemia
  GI50: 5.91 µM
  TGI: > 100 µM
COLO 205 colon
  GI50: 9.86 µM
  TGI: 30.8 µM
DU-145 prostate
  GI50: 7.92 µM
  TGI: 47.7 µM
EKVX NSCLC
  GI50: 6.56 µM
  TGI: 21.5 µM
HCC-2998 colon
  GI50: 10.6 µM
  TGI: 23.7 µM
HCT-116 colon
  GI50: 3.01 µM
  TGI: 15.2 µM
HCT-15 colon
  GI50: 7.87 µM
  TGI: 21.2 µM
HL-60(TB) leukemia
  GI50: 18.5 µM
  TGI: > 100 µM
HOP-62 NSCLC
  GI50: 5.43 µM
  TGI: 23.5 µM
HOP-92 NSCLC
  GI50: 5.99 µM
  TGI: 24.4 µM
HS 578T breast
  GI50: 10.2 µM
  TGI: 37.3 µM
HT29 colon
  GI50: 4.73 µM
  TGI: 19.3 µM
IGROV1 ovarian
  GI50: 5.9 µM
  TGI: 19 µM
K-562 leukemia
  GI50: 3.88 µM
  TGI: > 100 µM
KM12 colon
  GI50: 13.3 µM
  TGI: 39 µM
LOX IMVI melanoma
  GI50: 2.17 µM
  TGI: 5.64 µM
M14 melanoma
  GI50: 5.75 µM
  TGI: 25.4 µM
MALME-3M melanoma
  GI50: 10.4 µM
  TGI: 22.2 µM
MCF7 breast
  GI50: 4 µM
  TGI: 16.7 µM
MDA-MB-231 breast
  GI50: 4.37 µM
  TGI: 16 µM
MDA-MB-435
  GI50: 6.5 µM
  TGI: 20.2 µM
MDA-MB-468 breast
  GI50: 4.99 µM
  TGI: 17.6 µM
MOLT-4 leukemia
  GI50: 7.02 µM
  TGI: 75 µM
NCI-H226 lung
  GI50: 2.96 µM
  TGI: 9.92 µM
NCI-H23 lung
  GI50: 4.37 µM
  TGI: 16.6 µM
NCI-H460 lung
  GI50: 3.67 µM
  TGI: 15.8 µM
NCI-H522 lung
  GI50: 10.2 µM
  TGI: 24.9 µM
NCI/ADR-RES ovarian
  GI50: 4.13 µM
  TGI: 14.6 µM
OVCAR-3 ovarian
  GI50: 7.37 µM
  TGI: 22.4 µM
OVCAR-4 ovarian
  GI50: 8.99 µM
  TGI: 28.7 µM
OVCAR-5 ovarian
  GI50: 15.4 µM
  TGI: 38.3 µM
OVCAR-8 ovarian
  GI50: 4.84 µM
  TGI: 16.9 µM
PC-3 prostate
  GI50: 3.73 µM
  TGI: 20.5 µM
RPMI-8226 leukemia
  GI50: 9.08 µM
  TGI: > 100 µM
RXF 393 renal
  GI50: 4.41 µM
  TGI: 16.5 µM
SF-268 CNS
  GI50: 15.7 µM
  TGI: 40.3 µM
SF-295 CNS
  GI50: 3.25 µM
  TGI: 12.4 µM
SF-539 CNS
  GI50: 10.9 µM
  TGI: 23.1 µM
SK-MEL-2 melanoma
  GI50: 15.5 µM
  TGI: 33.4 µM
SK-MEL-28 melanoma
  GI50: 7.41 µM
  TGI: 20.2 µM
SK-MEL-5 melanoma
  GI50: 12.3 µM
  TGI: 26.4 µM
SK-OV-3 ovarian
  GI50: 7.48 µM
  TGI: 25.4 µM
SN12C renal
  GI50: 4.21 µM
  TGI: 15.8 µM
SNB-19 CNS
  GI50: 6.93 µM
  TGI: 23.8 µM
SNB-75 CNS
  GI50: 10.5 µM
  TGI: 23.9 µM
SW-620 colon
  GI50: 3.73 µM
  TGI: 19.5 µM
T-47D breast
  GI50: 18.1 µM
  TGI: 69.7 µM
TK-10 renal
  GI50: 6.8 µM
  TGI: 20.6 µM
U251 CNS
  GI50: 3.23 µM
  TGI: 14.2 µM
UACC-257 melanoma
  GI50: 15.2 µM
  TGI: 31.5 µM
UACC-62 melanoma
  GI50: 10.1 µM
  TGI: 21.8 µM
UO-31 renal
  GI50: 10.6 µM
  TGI: 22.7 µM
